Converted amounts (≈) assume the structure as drawn.
Experiments:
[1] = Inhibition of Candida albicans GGTase 1 by streptavidin scintillation proximity assay
[2] = tested on: Candida albicans; experiment: Antimicrobial activity against Candida albicans; type: functional

IC50 [1] [µM]	MIC [2] [µM]	Structure (SMILES)
1.9	54 (≈ 25.1 µg/mL)	C#CC(O)/C=C/CCCCCC#CC/C=C\CCCCCCCCCCC/C=C\C#CC(=O)O (centres undefined) [CORTICATIC ACID A]
3.3		C#C[C@H](O)/C=C/CCCCCC#C/C=C/C(O)CCCCCCCCCCC/C=C\C#CC(=O)O (some centres undefined) [CORTICATIC ACID D]
7.3		C#C[C@H](O)/C=C/CCCCC/C=C\C/C=C\CCCCCCCCCCC/C=C\C#CC(=O)O [CORTICATIC ACID E]
